biological target: T1, hCRTH2 (Homo sapiens, UniProt Q9Y5Y4); assay: Radioligand binding assay ([3H]PGD2 competition, membranes from HEK-hCRTH2 cell line); details: 0.7 nM [3H]PGD2, membrane protein from HEK-hCRTH2 cell line, 60 min at room temperature; values given as ranges
T1 construct: expressed in transfected cells; host or cells: HEK cell line expressing hCRTH2 (HEK-hCRTH2); membranes
T1 sequence (Q9Y5Y4 1-395): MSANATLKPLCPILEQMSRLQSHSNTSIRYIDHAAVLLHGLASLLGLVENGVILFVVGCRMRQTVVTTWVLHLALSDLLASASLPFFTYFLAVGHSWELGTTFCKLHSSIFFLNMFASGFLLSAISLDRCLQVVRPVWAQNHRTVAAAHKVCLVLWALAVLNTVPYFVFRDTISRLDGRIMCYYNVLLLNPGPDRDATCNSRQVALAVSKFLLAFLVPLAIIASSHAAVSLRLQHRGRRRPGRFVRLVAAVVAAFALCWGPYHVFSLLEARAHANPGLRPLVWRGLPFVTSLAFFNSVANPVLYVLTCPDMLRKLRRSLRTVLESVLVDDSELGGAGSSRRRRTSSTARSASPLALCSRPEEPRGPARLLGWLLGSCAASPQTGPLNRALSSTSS

SMILES | Ki [µM]
CC(C)(C)OC(=O)N1CCC(c2cnnn2C2CCc3c(CC(=O)O)c4ccccc4n3C2)CC1 (stereo not drawn) [Example 23, 4-[3-(10-Carboxymethyl-6,7,8,9-tetrahydropyrido[1,2-α]indol-7-yl)-3H-[1,2,3]triazol-4-yl]-piperidine-1-carboxylic acid tert-butyl ester] | > 0.1
O=C(O)Cc1c2n(c3ccccc13)CC(n1nncc1C1CCCCC1)CC2 (stereo not drawn) [Example 24, [7-(5-Cyclohexyl-[1,2,3]triazol-1-yl)-6,7,8,9-tetrahydropyrido[1,2-α]indol-10-yl]-acetic acid] | > 0.1
O=C(O)Cc1c2n(c3ccccc13)CC(n1nncc1C1(O)c3ccccc3-c3ccccc31)CC2 (stereo not drawn) [Example 25, {7-[5-(9-Hydroxy-9H-fluoren-9-yl)-[1,2,3]triazol-1-yl]-6,7,8,9-tetrahydropyrido[1,2-α]indol-10-yl}-acetic acid] | 0.01 to 0.05
O=C(O)Cc1c2n(c3ccccc13)CC(n1nncc1C(O)(c1ccccc1)C(F)(F)F)CC2 (stereo not shown) [Example 35, {7-[5-(2,2,2-trifluoro-1-hydroxy-1-phenyl-ethyl)-1H-1,2,3-triazol-1-yl]-6,7,8,9-tetrahydropyrido[1,2-a]indol-10-yl}acetic acid] | 0.01 to 0.05

Other lines, results leading:

Ki [µM] | SMILES
0.01 to 0.05 | O=C(O)Cc1c2n(c3ccccc13)CC(n1nncc1C(O)c1ccc(Br)cc1)CC2 (stereo not drawn) [Example 22, (7-{5-[(4-Bromo-phenyl)-hydroxy-methyl]-[1,2,3]triazol-1-yl}-6,7,8,9-tetrahydropyrido[1,2-α]indol-10-yl)-acetic acid]
≤ 0.005 | C=C(c1ccc(F)cc1)c1cnnn1C1CCc2c(CC(=O)O)c3ccccc3n2C1 (stereo not drawn) [Example 26, (7-{5-[1-(4-Fluoro-phenyl)-vinyl]-[1,2,3]triazol-1-yl}-6,7,8,9-tetrahydropyrido[1,2-α]indol-10-yl)-acetic acid]
≤ 0.005 | O=C(O)Cc1c2n(c3ccccc13)C[C@H](n1nncc1C(c1ccc(F)cc1)c1ccc(F)cc1)CC2 [Example 30, ((R)-7-{5-[Bis-(4-fluoro-phenyl)-methyl]-[1,2,3]triazol-1-yl}-6,7,8,9-tetrahydropyrido[1,2-α]indol-10-yl)-acetic acid]
